In US20210253511A1, “COMPOUNDS AND USES FOR THE TREATMENT AND PREVENTION OF DISEASES AND CONDITIONS ASSOCIATE WITH OR AGGREVATED BY IMPARED MITOPHAGY” (Yissum Research Development Company of The Hebrew …, priority 2018, published 2021):

System: pink-1(tm1779) mutants / pink-1 RNAi worms
Test: Paraquat survival assay in pink-1 deletion mutant or RNAi knockdown worms
Assay type: in vivo, C. elegans
Experimental: FIGS. 9A-9D show the protective activity of 1,8-Diaminooctane is mitophagy-dependent. (FIG. 9A) is a schematic illustration of the mitophagy pathway in C. elegans. Survival curves presenting the effect of dct-1 and pink-1 deletion mutations (FIG. 9B, FIG. 9C) or RNAi knockdowns (FIG. 9D) on worms' viability in 200 mM PQ at indicated time points. Statistical analysis on PQ survival curves were performed using the log-rank (Mantel-Cox) test with Prism 7 software. The plots represent the average of six independent experiments. The minimum number of worms examined for each experimental condition is 133.
In the first one, the effect of 1,8-Diaminooctane on the survival of dct-1 and pink-1 mutants in PQ was investigated. DCT-1 is an orthologue of the mammalian NIX/BNIP3L and BNIP3 that act as mitophagy receptors, and PINK-1 is a mitochondrial phosphatase and tensin (PTEN)-induced kinase 1 which has a critical function in mitophagy (see K. Palikaras, E. Lionaki, N. Tavernarakis, Coordination of mitophagy and mitochondrial biogenesis during ageing in C. elegans, Nature 521 (7553) (2015) 525-8; and FIG. 3A). It was hypothesized that if mitophagy is essential for the protective effect of 1,8-Diaminooctane, then dct-1 and pink-1 mutants will become sensitive to PQ following treatment. […] The second experiment that was performed was an RNAi experiment. Here, dct-1 and pink-1 were selectively knocked down using RNAi. The RNAi results recapitulated the one of the mutant experiments ([…]). […] Importantly, the RNAi phenotype was less strong compared to the one observed with the deletion mutants. […] The difference between the results could be due to incomplete suppression of dct-1 and pink-1 in the RNAi treated worms. Together, our results verify that 1,8-Diaminooctane protects against oxidative stress by activating mitophagy.

NCCCCCCCCN [1,8-Diaminooctane]
survival in PQ of treated worms, RNAi against pink-1 (compared to control worms that did not get the treatment, p<0.0001): significantly higher than control worms
resistance to PQ after treatment, pink-1(tm1779) mutants (compared to treated wild-type worms, 200 mM PQ, p<0.0001): significantly less resistant to PQ
protective effect in PQ, RNAi against pink-1 (compared to worms treated with mock RNAi (empty vector)): significantly lesser
